Data from patent US4374149A, “α-{[(Arylalkyl)amino]alkyl}-4-hydroxy-3-(lower-alkylsul finyl)benzenemethanols” (Sterling Drug Inc., priority 1978, dated 1983).
Counter-ions that a name gives are not always drawn. Like-named read-outs stand apart in the source and are kept apart here.

Legend:
[1] = system: systolic blood pressure; experiment: Antihypertensive activity, reduction in systolic blood pressure, single oral medication, unanesthetized spontaneous hypertensive rat; assay type: in vivo; details: P.O., single dose, unanesthetized SH rat
Experimental: Antihypertensive activity was determined on the basis of the observed reduction in systolic blood pressure measured according to the method of H. Kersten et al., J. Lab. and Clin. Med. 32, 1090 (1947) following a single oral medication in the unanesthetized spontaneous hypertensive rat described by Okamato et al., Japan Circulation J. 27, 282 (1963).
^a AHD40 = single oral dose required to induce a 40 mm. average

[2] = system: blood pressure; experiment: Antihypertensive activity, sustained lowering of blood pressure, repeated oral medication, unanesthetized trained renal hypertensive dog; assay type: in vivo; details: tid.
Text: Antihypertensive activity was also judged on the basis of sustained reduction of blood pressure observed in the unanesthetized trained renal hypertensive dog following repeated oral medication according to the procedure described by Lape et al., Arch.
^b MED10 = minimum repeated oral daily dose required to effect a

[3] = system: hind limb vasculature; experiment: Vasodilator activity, perfusion pressure in hind limb vasculature of anesthetized dog; assay type: in vivo; details: for ED50: Canis lupus familiaris, read-out: Vasodilator activity Dog-Leg Perfusion AED50 (approximate intraarterial dose for 50 reduction in perfusion pressure)
Text: (§1) Vasodilator activity was judged on the basis of observed reduction in perfusion pressure in the hind limb vasculature of the anesthetized dog determined according to the procedure described by Jandhyala et al., European J. Pharm. 17, 357 (1972), and also on the basis of percent reduction in perfusion pressure as measured in the isolated rabbit ear artery according to the method described by De LaLande et al., Aust. J. Exp. Biol. Med. Sci. 43, 639 (1965).
^c AED50 = approximate intraarterial dose required to cause a 50

[4] = system: isolated rabbit ear artery; experiment: Vasodilator activity, perfusion pressure in isolated rabbit ear artery
Text: as §1
^d Vasodilation is expressed as the percentage reduction in perfusion

[5] = system: β-adrenergic; experiment: β-adrenergic blocking activity, inhibition of isoproterenol-elicited heart rate increase in pentobarbitalized dog; assay type: in vivo; details: i.v.; for Dog β-blockade AED50 (approximate intravenous dose for 50% inhibition of isoproterenol-elicited heart rate increase): pentobarbitalized dog
Experimental: The β-adrenergic blocking activity was determined in the pentobarbitalized dog as judged by the ability of the test compound to inhibit the elevation in heart rate elicited by a 0.5 mcg./kg. i.v. injection of isoproterenol.
^e AED50 = approximate intravenous dose required to cause 50%

[6] = intraarterial, anesthetized dog hind limb

Compound	Antihypertensive activity SH Rat AHD40 (single oral dose required to induce a 40 mm. average reduction in systolic blood pressure) [1] [mg/kg]	Renal Hypertensive Dog MED10 (minimum repeated oral daily dose for sustained lowering of blood pressure of 10% or greater) [2] [mg/kg]	Actual percentage reduction in blood pressure observed at the indicated dose ([2]; 0.125 mg./kg.) [%]	ED50 [3, 6] [mg/kg]	Rabbit Ear Artery vasodilation (in words) ([4]; concentration not given)	Actual percentage inhibition of heart rate increase above control level observed at the indicated dose ([5]; 0.1 mg./kg.) [%]	Dog β-blockade AED50 (approximate intravenous dose for 50% inhibition of isoproterenol-elicited heart rate increase) [5] [mg/kg]	ED50 [3] [mg/kg]	Rabbit Ear Artery vasodilation (percentage reduction in perfusion pressure from control level) ([4]; 5 × 10^-5 M, 50 µM) [%]	Rabbit Ear Artery vasodilation (percentage reduction in perfusion pressure from control level) ([4]; 1 × 10^-6 M, 1 µM) [%]	Actual percentage inhibition of heart rate increase above control level observed at the indicated dose ([5]; 1.0 mg./kg.) [%]	Antihypertensive activity SH Rat AHD40 (single oral dose required to induce a 40 mm. average reduction in systolic blood pressure) ([1]; acetate salt) [mg/kg]	Vasodilator activity Dog-Leg Perfusion AED50 (approximate intraarterial dose for 50 reduction in perfusion pressure) ([3]; intraarterial, anesthetized dog hind limb, acetate salt) [mg/kg]	Rabbit Ear Artery vasodilation (percentage reduction in perfusion pressure from control level) ([4]; 5 × 10^-5 M, 50 µM, acetate salt) [%]	Dog β-blockade AED50 (approximate intravenous dose for 50% inhibition of isoproterenol-elicited heart rate increase) ([5]; acetate salt) [mg/kg]
COc1ccc(CCCNCC(O)c2ccc(O)c([S+](C)[O-])c2)cc1 (stereo not drawn) [Example 20C, 4-hydroxy-α-<{[3-(4-methoxyphenyl)propyl]amino}methyl>-3-(methylsulfinyl)benzenemethanol acetate salt]	7.0	> 0.125	0	0.5	constrictor	67	< 0.1								
COc1ccc(CC(C)NCC(O)c2ccc(O)c([S+](C)[O-])c2)cc1OC (stereo not drawn) [Example 16C, α-<{[2-(3,4-dimethoxyphenyl)-1-methylethyl]amino}methyl>-4-hydroxy-3-(methylsulfinyl)benzenemethanol acetate salt]	15.0					38	> 0.1	0.5	75						
CC(=O)O.C[S+]([O-])c1cc(C(O)CNC(C)(C)Cc2ccccc2)ccc1O (stereo not drawn) [Example 14D, α-{[(1,1-dimethyl-2-phenylethyl)amino]-methyl}-4-hydroxy-3-(methylsulfinyl)benzenemethanol acetate salt]	20.0			0.5			< 1.0			29	87				
COc1ccc(CCC(C)NCC(O)c2ccc(O)c([S+](C)[O-])c2)cc1 (stereo not drawn) [Example 2H, 4-hydroxy-α-<{[3-(4-methoxyphenyl)-1-methylpropyl]amino}methyl>-3-(methylsulfinyl)benzenemethanol acetate salt]												9.0	0.5	20	0.025
